Marks after values point to notes of the source that are not given here.
What was measured:
[1] = tested on: acetic acid-induced abdominal contraction mouse model; assay: Anti-pain efficacy test, acetic acid-induced abdominal contraction mouse model; format: in vivo; conditions: oral, 1 hour before 0.7% acetic acid i.p.; writhing counted for 10 minutes (FIG. 5)
Description: In order to evaluate the anti-pain efficacy of the compound according to the present invention in abdominal contraction mice, an experiment was conducted as follows.
Specifically, male ICR mice weighing about 20 to 25 g from Orient Bio Co., Ltd. (Gyeonggi-do, Korea) were acclimated in a laboratory for 7 days and provided chow and water ad libitum. Temperature (20±2° C.), humidity (40±60%) and light/dark cycle (12 hours) were controlled automatically.
Based on 10 mice per group, the control group was orally administered with an excipient (200 μL), and the positive control group was orally administered with celecoxib at 25 mg/kg. Compound 9 of the present invention was dissolved in an excipient (10% NMP (N-methyl-2-pyrrolidone), 10% ethanol, 80% polyethylene glycol 400) and administered orally at 10 and 50 mg/kg to each mouse. One hour after drug administration, 0.7% acetic acid was intraperitoneally injected at […] to induce pain. The number of writhing was measured for 10 minutes from 10 minutes after the acetic acid administration.
In this experiment, the less the number of writhing for 10 minutes, the stronger the anti-pain efficacy of the drug was evaluated. The statistical significance compared to the control group was represented as **P<0.01, *P<0.05 compared to the control group.

[2] = tested on: A549 human lung cancer cells; assay: Measurement of PGE2 in IL-1β-treated A549 human lung cancer cells; format: cell-based; conditions: PGE2 production, A549 cell, IL-1β 1 ng/mL, 48 hours
Description: Samples at various concentrations were added at 24 hours after A549 human lung cancer cells were seeded. After 1 hour, IL-1β of 1 ng/mL was added. The cells were cultured for 48 hours and then the culture supernatant was collected. PGE2 of the collected supernatant was measured according to the manufacturer's instructions using a PGE2 EIA kit.

[3] = tested on: PGE2, IL-1β, and TNF-α in blood; assay: Inflammatory factor evaluation (ELISA) in blood of MIA osteoarthritis guinea pigs; format: in vivo, guinea pig; conditions: for IL-1β (ELISA analysis) / PGE2 (ELISA analysis) / TNF-α (ELISA analysis): blood, after 4 weeks
Description: (§1) Specifically, male guinea pigs weighing about 500 g±20% from Coretech Co., Ltd. (Gyeonggi-do, Korea) were acclimated in a laboratory for 8 days, and provided chow and water ad libitum. Temperature (23±3° C.), humidity (55±15%) and light/dark cycle (12 hours, 08:00˜20:00) were controlled automatically.
(§2) Each group consisted of 10 guinea pigs. Guinea pigs were anesthetized with Zoletil 50 (VIRBAC, France, 5 mg/kg) and xylazine (Rompun®, Bayer AG, Germany, 2.5 mg/kg) and depilated at the area around the right knee with Clipper. Using a C-arm (ARCADIS Varic, SIEMENS Co.), it was confirmed that a syringe equipped with a 26 gauge needle was located in the joint cavity. 50 μL of MIA at a concentration of 60 mg/mL was administered into the joint cavity. One week after MIA administration, Compound 9 of the present invention was added to excipients (DMSO (10% by weight), Tween 80 (30% by weight), HMPC (same amount as the drug)), dissolved in water so that the total amount was 100% by weight, and orally administered to the prepared experimental animals at 10 mg/kg and 25 mg/kg, respectively. In the positive control group, GRC27864 was orally administered at 12.5 mg/kg using the same excipient, and only the excipient was orally administered to the control group. The drug was administered for 4 weeks.
(§3) The hind limb incapacitance test was performed for the behavioral evaluation weekly for 4 weeks and the inflammatory factor evaluation was performed by measuring PGE2, IL-1β, and TNF-α in blood after 4 weeks.
The concentrations of PGE2, IL-1β, and TNF-α in blood were measured using commercially available ELISA kit after 4 weeks. The results are shown in Table 4 below and FIGS. 2 to 4. ***, ** and * represent statistical significance compared to the control group, and are P<0.001, P<0.01, and P<0.05 compared to the control group.

[4] = tested on: guinea pig model of osteoarthritis induced by MIA (monosodium iodoacetate); assay: Hind limb incapacitance test in guinea pig model of osteoarthritis induced by MIA; format: in vivo; conditions: for weight-bearing ratios, course in words: over 4 weeks of oral administration after MIA
Description: An experiment was conducted as follows in order to evaluate the efficacy of the compound according to the present invention for osteoarthritis-induced guinea pigs.
as §1, §2, §3
The hind limb weight-bearing ratios were obtained by setting up the animals at an inclination of 60 degrees in a plastic room using an incapacitance meter tester, measuring the intensity applied to each hind limb over 10 seconds, and calculating an average. Weight-bearing ratios are 50% for normal cases and up to early 30% for the cases in which a disease is induced.

For `CC(C)C(=O)NCc1ccc(Cl)c(C(=O)Nc2ccc3c(c2)cc(C(=O)Nc2ccc(OC(F)(F)F)cc2)n3C)c1` [Compound 9, 5-(2-chloro-5-(isobutyramidomethyl)benzamido)-1-methyl-N-(4-(trifluoromethoxy)phenyl)-1H-indole-2-carboxamide], which “number of writhing compared to the control group” value [1] is on record?
Its value is “significantly lower number of writhing compared to the control group”.

And the IC50 [2]?
The IC50 was 7.16 nM.

And the “inhibitory ability on inflammatory factors, in words” value ([3]; 25 mpk, compared with GRC27864 group)?
Its value is “inhibited the inflammatory factor more than the group administered with the drug GRC27864”.

And the “IL-1β (ELISA analysis)” value ([3]; 10 mpk oral)?
The value was 41.547 ± 10.683.

And the “PGE2 (ELISA analysis)” value ([3]; 10 mpk oral)?
The value was 9331.6 ± 2215.6.

And the “TNF-α (ELISA analysis)” value ([3]; 10 mpk oral)?
Its value is 119.715 ± 22.898.

What about the “IL-1β (ELISA analysis)” value ([3]; 25 mpk oral) of the same molecule?
The value was 34.345 ± 11.786.

What about the “PGE2 (ELISA analysis)” value ([3]; 25 mpk oral) of the same molecule?
The value was 5812.4 ± 1758.8***.

What about the “TNF-α (ELISA analysis)” value ([3]; 25 mpk oral) of the same molecule?
The value was 94.833 ± 22.453**.

And the Weight-bearing ratio ([4]; 10 mpk oral, day 0)?
Its Weight-bearing ratio is 42.05 ± 2.99%.

What about the Weight-bearing ratio ([4]; 10 mpk oral, day 7) of the same molecule?
The Weight-bearing ratio was 39.64 ± 5.30%.

What about the Weight-bearing ratio ([4]; 10 mpk oral, day 14) of the same molecule?
Its Weight-bearing ratio is 39.53 ± 6.41%.

And the Weight-bearing ratio ([4]; 10 mpk oral, day 21)?
Its Weight-bearing ratio is 40.16 ± 2.92%.

What about the Weight-bearing ratio ([4]; 10 mpk oral, day 28) of the same molecule?
Its Weight-bearing ratio is 38.42 ± 1.52%.

What about the Weight-bearing ratio ([4]; 25 mpk oral, day 0) of the same molecule?
The Weight-bearing ratio was 39.15 ± 4.53%.

And the Weight-bearing ratio ([4]; 25 mpk oral, day 7)?
Its Weight-bearing ratio is 42.39 ± 3.69%.

What about the Weight-bearing ratio ([4]; 25 mpk oral, day 14) of the same molecule?
The Weight-bearing ratio was 40.65 ± 3.61%.

What about the Weight-bearing ratio ([4]; 25 mpk oral, day 21) of the same molecule?
Its Weight-bearing ratio is 39.19 ± 3.15%.

What about the Weight-bearing ratio ([4]; 25 mpk oral, day 28) of the same molecule?
Its Weight-bearing ratio is 39.28 ± 4.14%.

And the “weight-bearing ratios, course in words” value [4]?
The value was “did not worsen after MIA administration but were maintained”.

How did the IC50 [2] turn out when `CC(C)C(=O)NCc1ccc(Cl)c(C(=O)Nc2ccc3c(c2)cc(C(=O)N[C@@H](C)c2ccc(Br)cc2)n3CC(F)(F)F)c1` [Compound 67, (S)—N-(1-(4-bromophenyl)ethyl)-5-(2-chloro-5-(isobutyramidomethyl)benzamido)-1-(2,2,2-trifluoroethyl)-1H-indole-2-carboxamide] was run?
The IC50 was 1.8 nM.

For `CC(C)C(=O)NCc1ccc(Cl)c(C(=O)Nc2ccc3c(c2)cc(C(=O)NCc2ccc(F)cc2)n3CC(F)(F)F)c1` [Compound 68, 5-(2-chloro-5-(isobutyramidomethyl)benzamido)-N-(4-fluorobenzyl)-1-(2,2,2-trifluoroethyl)-1H-indole-2-carboxamide], which IC50 [2] is on record?
The IC50 was 8.52 nM.

For `CC(C)C(=O)NCc1ccc(Cl)c(C(=O)Nc2ccc3c(c2)cc(C(=O)NCc2cc(F)cc(C(F)(F)F)c2)n3CC(F)(F)F)c1` [Compound 69, 5-(2-chloro-5-(isobutyramidomethyl)benzamido)-N-(3-fluoro-5-(trifluoromethyl)benzyl)-1-(2,2,2-trifluoroethyl)-1H-indole-2-carboxamide], which IC50 [2] is on record?
Its IC50 is 47 nM.

For `CC(C)C(=O)NCc1ccc(Cl)c(C(=O)Nc2ccc3c(c2)cc(C(=O)NCc2cccc(C(F)(F)F)c2)n3CC(F)(F)F)c1` [Compound 70, 5-(2-chloro-5-(isobutyramidomethyl)benzamido)-1-(2,2,2-trifluoroethyl)-N-(3-(trifluoromethyl)benzyl)-1H-indole-2-carboxamide], which IC50 [2] is on record?
Its IC50 is 9.65 nM.

With `CC(C)C(=O)NCc1ccc(Cl)c(C(=O)Nc2ccc3c(c2)cc(C(=O)NCc2ccc(Cl)c(F)c2)n3CC(F)(F)F)c1` [Compound 71, N-(4-chloro-3-fluorobenzyl)-5-(2-chloro-5-(isobutyramidomethyl)benzamido)-1-(2,2,2-trifluoroethyl)-1H-indole-2-carboxamide] as the molecule, how does the IC50 [2] read?
The IC50 was 20.1 nM.

Which IC50 [2] does the source give for `CC(C)C(=O)NCc1ccc(Cl)c(C(=O)Nc2ccc3c(c2)cc(C(=O)NCc2ccc(OC(F)(F)F)cc2)n3CC(F)(F)F)c1` [Compound 72, 5-(2-chloro-5-(isobutyramidomethyl)benzamido)-1-(2,2,2-trifluoroethyl)-N-(4-(trifluoromethoxy)Benzyl)-1H-indole-2-carboxamide] here?
The IC50 was 9.38 nM.

`CC(C)C(=O)NCc1ccc(Cl)c(CNc2ccc3c(c2)cc(C(=O)Nc2ccc(OC(F)(F)F)cc2)n3C)c1` [Compound 73, 5-((2-chloro-5-(isobutyramidomethyl)benzyl)amino)-1-methyl-N-(4-(trifluoromethoxy)phenyl)-1H-indole-2-carboxamide] was tested. Which IC50 [2] did it give?
Its IC50 is 72.3 nM.

Which IC50 [2] does the source give for `CC(C)C(=O)NCc1ccc(Cl)c(C(=O)Nc2ccc3[nH]c(C(=O)Nc4ccc(OC(F)(F)F)cc4)cc3c2)c1` [Compound 74, 5-(2-chloro-5-(isobutyramidomethyl)benzamido)-N-(4-(trifluoromethoxy)phenyl)-1H-indole-2-carboxamide] here?
The IC50 was 5.87 nM.

For `CC(C)C(=O)NCc1ccc(Cl)c(C(=O)Nc2ccc3[nH]c(C(=O)Nc4ccc(C(F)(F)F)cc4)cc3c2)c1` [Compound 75, 5-(2-chloro-5-(isobutyramidomethyl)benzamido)-N-(4-(trifluoromethyl)phenyl)-1H-indole-2-carboxamide], which IC50 [2] is on record?
Its IC50 is 6.49 nM.

`CC(C)C(=O)NCc1ccc(Cl)c(-c2nc3cc(-c4ccc(C(F)(F)F)cc4)ncc3c(=O)[nH]2)c1` [GRC27864, reference compound] was tested. Which IC50 [2] did it give?
The IC50 was 3.21 nM.

What about the “IL-1β (ELISA analysis)” value ([3]; 12.5 mpk oral) of the same molecule?
Its value is 37.408 ± 9.109.

What about the “PGE2 (ELISA analysis)” value ([3]; 12.5 mpk oral) of the same molecule?
Its value is 7756.9 ± 1860.5**.

And the “TNF-α (ELISA analysis)” value ([3]; 12.5 mpk oral)?
Its value is 97.110 ± 20.595*.

And the Weight-bearing ratio ([4]; GRC27864 12.5 mg/kg oral, day 0)?
Its Weight-bearing ratio is 40.84 ± 2.68%.

And the Weight-bearing ratio ([4]; GRC27864 12.5 mg/kg oral, day 7)?
Its Weight-bearing ratio is 43.66 ± 4.51%.

What about the Weight-bearing ratio ([4]; GRC27864 12.5 mg/kg oral, day 14) of the same molecule?
Its Weight-bearing ratio is 39.85 ± 3.29%.

What about the Weight-bearing ratio ([4]; GRC27864 12.5 mg/kg oral, day 21) of the same molecule?
The Weight-bearing ratio was 37.35 ± 4.43%.

And the Weight-bearing ratio ([4]; GRC27864 12.5 mg/kg oral, day 28)?
Its Weight-bearing ratio is 40.92 ± 3.85%.

What about the “weight-bearing ratios, course in words” value [4] of the same molecule?
Its value is “did not worsen after MIA administration but were maintained”.

With `Cc1ccc(-c2cc(C(F)(F)F)nn2-c2ccc(S(N)(=O)=O)cc2)cc1` [celecoxib, reference compound] as the molecule, how does the “number of writhing compared to the control group” value [1] read?
Its value is “significantly lower number of writhing compared to the control group”.

— patent US12465588B2, “Indole carboxamide derivative and pharmaceutical composition containing same” (KUKJE PHARMA CO., LTD., priority 2019, dated 2025)
